Measured values: patent US8022043B2, “Ceramide derivatives as modulators of immunity and autoimmunity” (Albert Einstein College of Medicine of Yeshiva University, priority 2004, dated 2011)

Experiments:
NOD mice = test: Prevention of type 1 diabetes in NOD mice; assay type: in vivo; conditions: i.p. once per week, 200 micrograms/kg; comparator DB01-1 (indicated as KRN7000)
Protocol: Cohorts of 6-8 female NOD mice were treated with placebo (vehicle) or DB01-1 (indicated as KRN7000), DB03-4 or DB03-5 injections once weekly beginning at 4-5 weeks of age. Treatment was discontinued after 5 injections (DB03-4) or 7 injections (DB03-5). Top graphs show incidence of glycosuria, and bottom graphs show survival in each cohort.
Given the widely held belief that selective augmentation of IL-4 production can be protective or therapeutic in the setting of many autoimmune diseases, we have initiated studies to examine the efficacy of compounds such as DB03-4 and DB03-5 in diabetes prone NOD mice. […] The results reported in FIG. 10 were obtained by treating three groups, each consisting of 9-12 female NOD mice, starting from age 5 weeks with a ceramide-like glycolipid. The indicated ceramide-like glycolipids (DB03-4, DB03-5, or KRN7000) were injected i.p. once per week in a dose of 200 micrograms/kg. Treatment was discontinued at 11 weeks of age, and the mice were monitored weekly for glucosuria (top) and death (bottom).
For experiments involving in vivo treatment of mice with the ceramide-like glycolipids, the ceramide-like glycolipids were administered by i.p. or i.v. injection in 0.2 ml PBS+0.025% Tween-20, or in vehicle alone. A typical dose is about 4-5 nmoles per animal per injection. […]

NK T hybridoma DN32.D3 = test: Murine NK T cell hybridoma stimulation assay (IL-2 release), RMA-S.mCD1d as APC; assay type: cell-based, mouse; conditions: presented by RMA-S/CD1d cells
Protocol: FIG. 5. […] NK T hybridoma DN32.D3 was cultured with CD1d-transfected RMA-S cells in microtiter plate wells. Each ceramide-like glycolipid was titrated over a concentration range from 0.5-500 nM, and supernatants were harvested after 24 hours for measurement of IL-2 release. Units of activity were calculated as the reciprocal of the concentration of ceramide-like glycolipid required to give a half maximal release of IL-2, and all values were normalized to the activity of KRN7000 (defined as 1 Unit). The dotted line indicates the level of activity for KRN7000. The structures of two ceramide-like glycolipids with markedly elevated activity relative to KRN7000 are shown.
The ability of the compounds to activate NK T cell hybridomas in the presence of various types of cells expressing CD1d reported in FIG. 5A was determined using a murine NK T cell hybridoma stimulation assay. […] Relative potencies of the ceramide-like glycolipids were calculated from the reciprocal effective concentrations at half-maximal response (1/EC50), and expressed as units by normalization to the observed potency for KRN7000.
IL-2 production by NK T hybridoma DN32D3 in response to eight selected ceramide-like glycolipids, was determined using three different cell types as antigen presenting cells. […]

CCCCC/C=C\C/C=C\CCCCCCCCCC(=O)N[C@@H](COC1OC(CO)C(O)C(O)C1O)[C@H](O)[C@H](O)CCCCCCCCCCCCCC (some centres unmarked) [DB03-4]
prevention of diabetes in NOD mice compared with KRN7000 (NOD mice): superior to KRN7000
potency relative to KRN7000 (IL-2 production) (NK T hybridoma DN32.D3): extremely enhanced potency
